In general, IC50 refers to the concentration that gives 50% inhibition.

One assay has as its target p38α MAPK (Homo sapiens, UniProt Q16539). In words: p38α MAPK enzyme-linked immunosorbent assay. It counts as biochemical. The settings on record: for fold higher activity for p38α MAPK than for JNK3: ratio of IC50 values; for inhibition at 10 µM: read-out: Percent inhibition of p38α MAPK at indicated concentration.
Another assay concerns the target JNK3 (Homo sapiens, UniProt P53779). In words: JNK3 enzyme-linked immunosorbent assay. The format is biochemical.

Each structure is given as a SMILES string. Where two headings read alike, the source gives them in different places.

Sequence of JNK3 (P53779 whole entry): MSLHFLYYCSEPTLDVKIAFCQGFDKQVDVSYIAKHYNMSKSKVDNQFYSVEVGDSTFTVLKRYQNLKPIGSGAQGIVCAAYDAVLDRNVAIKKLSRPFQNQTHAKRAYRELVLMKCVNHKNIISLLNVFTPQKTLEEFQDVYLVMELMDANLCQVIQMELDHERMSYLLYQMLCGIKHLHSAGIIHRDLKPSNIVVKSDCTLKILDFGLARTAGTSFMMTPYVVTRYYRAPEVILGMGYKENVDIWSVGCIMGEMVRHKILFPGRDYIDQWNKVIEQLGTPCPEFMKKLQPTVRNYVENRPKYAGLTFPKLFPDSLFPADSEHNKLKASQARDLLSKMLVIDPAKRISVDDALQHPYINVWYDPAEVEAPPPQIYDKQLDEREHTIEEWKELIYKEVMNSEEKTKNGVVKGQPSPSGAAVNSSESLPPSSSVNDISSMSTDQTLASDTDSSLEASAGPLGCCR
Sequence of p38α MAPK (Q16539 whole entry): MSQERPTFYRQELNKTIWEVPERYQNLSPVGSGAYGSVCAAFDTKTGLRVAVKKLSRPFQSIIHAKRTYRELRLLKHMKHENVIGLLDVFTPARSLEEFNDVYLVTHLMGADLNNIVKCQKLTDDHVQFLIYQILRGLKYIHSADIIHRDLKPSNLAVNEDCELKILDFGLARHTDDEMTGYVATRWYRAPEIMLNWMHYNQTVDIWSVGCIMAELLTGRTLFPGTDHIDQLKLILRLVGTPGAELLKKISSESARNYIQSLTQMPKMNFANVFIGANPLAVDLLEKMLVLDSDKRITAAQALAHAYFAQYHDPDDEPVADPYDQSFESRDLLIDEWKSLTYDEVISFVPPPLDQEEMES

Take `CSc1nc(-c2ccc(F)cc2)c(-c2ccnc(Nc3ccc(N4CCOCC4)cc3)c2)[nH]1` [Compound 5, 4-(4-(4-Fluorophenyl)-2-(methylthio)-1H-imidazol-5-yl)-N-(4-morpholinophenyl)pyridin-2-amine]: the IC50 at p38α MAPK is 17 ± 1 nM; against JNK3, 38 ± 2 nM.
In the case of `O=c1[nH]c(-c2ccc(F)cc2)c(-c2ccnc(Nc3ccc(N4CCOCC4)cc3)c2)[nH]1` [Compound 8, 4-(4-Fluorophenyl)-5-(2-((4-morpholinophenyl)amino)pyridin-4-yl)-1,3-dihydro-2H-imidazol-2-one], the figures for the half-maximal inhibitory concentration (IC50) on p38α MAPK and at JNK3 were 34 ± 4 nM and 142 ± 28 nM, respectively.
For `CCc1nc(-c2ccc(F)cc2)c(-c2ccnc(Nc3ccc(N4CCOCC4)cc3)c2)[nH]1` [Compound 13, 4-(2-Ethyl-4-(4-fluorophenyl)-1H-imidazol-5-yl)-N-(4-morpholinophenyl)pyridin-2-amine], in that order: 9 ± 4 nM and 34 ± 0.2 nM.
For the compound `c1ccc(-c2nc[nH]c2-c2ccnc(Nc3ccc(N4CCOCC4)cc3)c2)cc1` [Compound 18a, N-(4-Morpholinophenyl)-4-(4-phenyl-1H-imidazol-5-yl)pyridin-2-amine], the IC50 on p38α MAPK worked out at 24 ± 3 nM; against JNK3, 37 ± 3 nM.
Consider `Clc1ccccc1-c1nc[nH]c1-c1ccnc(Nc2ccc(N3CCOCC3)cc2)c1` [Compound 18b, 4-(4-(2-Chlorophenyl)-1H-imidazole-5-yl)-N-(4-morpholinophenyl)pyridin-2-amine], for which the 50% inhibitory concentration (IC50) worked out at 38 ± 2 nM on p38α MAPK and 60 ± 8 nM against JNK3.
For `Brc1ccccc1-c1nc[nH]c1-c1ccnc(Nc2ccc(N3CCOCC3)cc2)c1` [Compound 18c, 4-(4-(2-Bromophenyl)-1H-imidazol-5-yl)-N-(4-morpholinophenyl)pyridin-2-amine], in that order: 61 ± 2 nM and 131 ± 21 nM.
In the case of `FC(F)(F)c1cccc(-c2nc[nH]c2-c2ccnc(Nc3ccc(N4CCOCC4)cc3)c2)c1` [Compound 18d, N-(4-Morpholinophenyl)-4-(4-(3-(trifluoromethyl)phenyl)-1H-imidazol-5-yl)pyridin-2-amine], at p38α MAPK, the half-maximal inhibitory concentration (IC50) worked out at 22 ± 3 nM and the “fold higher activity for p38α MAPK than for JNK3” value came out at 6 fold. Also, at JNK3, the half-maximal inhibitory concentration (IC50) amounted to 143 ± 12 nM.
With `c1ccc2cc(-c3nc[nH]c3-c3ccnc(Nc4ccc(N5CCOCC5)cc4)c3)ccc2c1` [Compound 18e, N-(4-Morpholinophenyl)-4-(4-(naphthalen-2-yl)-1H-imidazol-5-yl)pyridin-2-amine], the half-inhibitory concentration (IC50) at p38α MAPK was found to be 16 ± 3 nM; against JNK3 it was 31 ± 3 nM.
As to `Cn1cc(-c2nc[nH]c2-c2ccnc(Nc3ccc(N4CCOCC4)cc3)c2)cn1` [Compound 18f, 4-(4-(1-Methyl-1H-pyrazol-4-yl)-1H-imidazol-5-yl)-N-(4-morpholinophenyl)pyridin-2-amine], the concentration for half-maximal inhibition (IC50) came to 3260 nM against p38α MAPK and 758 ± 49 nM on JNK3.
`c1cc(-c2[nH]cnc2C2CCCCC2)cc(Nc2ccc(N3CCOCC3)cc2)n1` [Compound 18g, 4-(4-Cyclohexyl-1H-imidazol-5-yl)-N-(4-morpholinophenyl)pyridin-2-amine]: at p38α MAPK, the half-inhibitory concentration (IC50) worked out at 726 ± 21 nM and the “fold higher activity for p38α MAPK than for JNK3” value was 2 fold. On JNK3, this compound yielded an IC50 of 1720 nM.
For `c1cc(-c2[nH]cnc2C2CCCC2)cc(Nc2ccc(N3CCOCC3)cc2)n1` [Compound 18h, 4-(4-Cyclopentyl-1H-imidazol-5-yl)-N-(4-morpholinophenyl)pyridin-2-amine], the IC50 turned out to be 1720 nM against p38α MAPK and 2190 nM on JNK3 (read-out: IC50 ± SD JNK3, ELISA, mean of three experiments (SP600125 n = 16)).
For the compound `c1cc(-c2[nH]cnc2C2CCC2)cc(Nc2ccc(N3CCOCC3)cc2)n1` [Compound 18i, 4-(4-Cyclobutyl-1H-imidazol-5-yl)-N-(4-morpholinophenyl)pyridin-2-amine], the results for the IC50 against p38α MAPK and against JNK3 were 2260 nM and 1760 nM, respectively.
As to `c1cc(-c2[nH]cnc2C2CC2)cc(Nc2ccc(N3CCOCC3)cc2)n1` [Compound 18j, 4-(4-Cyclopropyl-1H-imidazol-5-yl)-N-(4-morpholinophenyl)pyridin-2-amine], the results for the half-inhibitory concentration (IC50) against p38α MAPK and against JNK3 were 4020 nM and 1080 nM, respectively.
Take `CC(C)(C)c1nc[nH]c1-c1ccnc(Nc2ccc(N3CCOCC3)cc2)c1` [Compound 18k, 4-(4-(tert-Butyl)-1H-imidazol-y-yl)-N-(4-morpholinophenyl)pyridin-2-amine]: the IC50 against p38α MAPK and at JNK3 was over 10000 nM each time. Moreover, the values for the inhibition at 10 µM on p38α MAPK and at JNK3 (read-out: Percent inhibition of JNK3 at indicated concentration) were 41% and 32%, respectively.
As for `CC(C)c1nc[nH]c1-c1ccnc(Nc2ccc(N3CCOCC3)cc2)c1` [Compound 18l, 4-(4-Isopropyl-1H-imidazol-5-yl)-N-(4-morpholinophenyl)pyridin-2-amine], on p38α MAPK, inhibition was half-maximal at 10000 nM (IC50) and the inhibition at 10 µM was found to be 50%. The compound further yielded an IC50 against JNK3 of 2830 nM.
For `Cc1nc[nH]c1-c1ccnc(Nc2ccc(N3CCOCC3)cc2)c1` [Compound 38, 4-(4-Methyl-1H-imidazol-5-yl)-N-(4-morpholinophenyl)pyridin-2-amine], in that order: over 10000 nM, 41% and 833 ± 139 nM.
Take `CCc1nc[nH]c1-c1ccnc(Nc2ccc(N3CCOCC3)cc2)c1` [Compound 39, 4-(4-Ethyl-1H-imidazol-5-yl)-N-(4-morpholinophenyl)pyridin-2-amine]: on p38α MAPK, the concentration for half-maximal inhibition (IC50) was over 10000 nM and the inhibition at 10 µM amounted to 34%.
Turning to `CSc1ncc(-c2ccnc(Nc3ccc(N4CCOCC4)cc3)c2)[nH]1` [Compound 43, 4-(2-(Methylthio)-1H-imidazol-5-yl)-N-(4-morpholinophenyl)pyridin-2-amine], the half-maximal inhibitory concentration (IC50) was over 10000 nM against p38α MAPK and 562 ± 21 nM on JNK3. The inhibition at 10 µM on p38α MAPK came out at 43%.
For `CCc1nc(SC)[nH]c1-c1ccnc(Nc2ccc(N3CCOCC3)cc2)c1` [Compound 45, 4-(4-Ethyl-2-(methylthio)-1H-imidazol-5-yl)-N-(4-morpholinophenyl)pyridin-2-amine], at p38α MAPK, the half-maximal inhibitory concentration (IC50) was over 10000 nM and the inhibition at 10 µM came out at 38%. The compound also yielded a half-maximal inhibitory concentration (IC50) on JNK3 of 1100 nM.
Take `Cc1[nH]c(N)nc1-c1ccnc(Nc2ccc(N3CCOCC3)cc2)c1` [Compound 47, 4-(2-Amino-5-methyl-1H-imidazol-4-yl)-N-(4-morpholinophenyl)pyridin-2-amine]: at p38α MAPK, the half-maximal inhibitory concentration (IC50) was over 10000 nM and the inhibition at 10 µM was 43%.
With `CSc1nc(C)c(-c2ccnc(NC(C)C(C)C)c2)[nH]1` (stereo not shown) [Compound 48a, 4-(4-Methyl-2-(methylthio)-1H-imidazol-5-yl)-N-(3-methylbutan-2-yl)pyridin-2-amine], at p38α MAPK, the half-inhibitory concentration (IC50) is over 10000 nM and the inhibition at 10 µM is 34%. Further, half-maximal inhibition against JNK3 (IC50) required 2590 nM.
For the compound `CSc1nc(C)c(-c2ccnc(NC(C)c3ccccc3)c2)[nH]1` (stereo not shown) [Compound 48b, 4-(4-Methyl-2-(methylthio)-1H-imidazol-5-yl)-N-(1-phenylethyl)pyridin-2-amine], the half-inhibitory concentration (IC50) is 3460 nM on p38α MAPK and 7610 nM against JNK3.
For `CSc1nc(C)c(-c2ccnc(NC3CCC3)c2)[nH]1` [Compound 48c, N-Cyclobutyl-4-(4-methyl-2-(methylthio)-1H-imidazol-5-yl)pyridin-2-amine], on p38α MAPK, the IC50 is over 10000 nM and the inhibition at 10 µM is 36%. Further, at JNK3, half-maximal inhibition (IC50) was put at 3040 nM.
For `CSc1nc(C)c(-c2ccnc(NC3CCCC3)c2)[nH]1` [Compound 48d, N-Cyclopentyl-4-(4-methyl-2-(methylthio)-1H-imidazol-5-yl)pyridin-2-amine], the results for the IC50 against p38α MAPK and against JNK3 were over 10000 nM and 1570 nM, respectively. Moreover, the inhibition at 10 µM on p38α MAPK was 47%.
For the compound `CSc1nc(C)c(-c2ccnc(NC3CCCCC3)c2)[nH]1` [Compound 48e, N-Cyclohexyl-4-(4-methyl-2-(methylthio)-1H-imidazol-5-yl)pyridin-2-amine], at p38α MAPK, the concentration for half-maximal inhibition (IC50) was over 10000 nM and the inhibition at 10 µM was 31%. This compound displayed a half-maximal inhibitory concentration (IC50) against JNK3 of 671 ± 74 nM.
`CSc1nc(C)c(-c2ccnc(NC3CCOCC3)c2)[nH]1` [Compound 48f, 4-(4-Methyl-2-(methylthio)-1H-imidazol-5-yl)-N-(tetrahydro-2H-pyran-4-yl)pyridin-2-amine]: on p38α MAPK, the 50% inhibitory concentration (IC50) is over 10000 nM and the inhibition at 10 µM turned out to be 27%.
With `CSc1nc(C)c(-c2ccnc(N[C@H]3CC[C@H](O)CC3)c2)[nH]1` [Compound 48g, trans-4-((4-(4-Methyl-2-(methylthio)-1H-imidazol-5-yl)pyridin-2-yl)amino)cyclohexan-1-ol], the IC50 on p38α MAPK was over 10000 nM; against JNK3, 457 ± 72 nM. At p38α MAPK, the inhibition at 10 µM is 35%.
As for `CSc1nc(C)c(-c2ccnc(N[C@H]3CC[C@H](N)CC3)c2)[nH]1` [Compound 48h, trans-N1-(4-(4-Methyl-2-(methylthio)-1H-imidazol-5-yl)pyridin-2-yl)cyclohexane-1,4-diamine], on p38α MAPK, the half-inhibitory concentration (IC50) is over 10000 nM and the inhibition at 10 µM is 46%. Besides, at JNK3, it took 941 ± 75 nM to reach half-maximal inhibition (IC50) and the “fold drop in potency on JNK3 versus parent compound 44” value worked out at 3 fold.
For the compound `CSc1nc(C)c(-c2ccnc(N[C@H]3CC[C@H](NC(C)=O)CC3)c2)[nH]1` [Compound 48i, N-(trans-4-((4-(4-Methyl-2-(methylthio)-1H-imidazol-5-yl)pyridin-2-yl)amino)cyclohexyl)acetamide], at p38α MAPK, the IC50 is over 10000 nM and the inhibition at 10 µM is 37%. The compound also gave an IC50 on JNK3 of 819 ± 141 nM.
As to `CSc1nc(C)c(-c2ccnc(N[C@H]3CC[C@H](NC(=O)c4ccccc4)CC3)c2)[nH]1` [Compound 48j, N-(trans-4-((4-(4-Methyl-2-(methylthio)-1H-imidazol-5-yl)pyridin-2-yl)amino)cyclohexyl)benzamide], at p38α MAPK, the IC50 is over 10000 nM and the inhibition at 10 µM was found to be 12%.
With `CSc1nc(C)c(-c2ccnc(N[C@H]3CC[C@H](NC(=O)C(C)(C)C)CC3)c2)[nH]1` [Compound 48l, N-(trans-4-((4-(4-Methyl-2-(methylthio)-1H-imidazol-5-yl)pyridin-2-yl)amino)cyclohexyl)pivalamide], at p38α MAPK, the IC50 was over 10000 nM and the inhibition at 10 µM was 13%.
Take `Oc1c2ccccc2c2c3c(cccc13)N=N2` [SP600125, reference compound]: the half-inhibitory concentration (IC50) on JNK3 came to 171 ± 36 nM.
